In article PMC11613329, “An Optimized Marinopyrrole A Derivative Targets 6-Phosphoglucosamine Synthetase to Inhibit Methicillin-Resistant Staphylococcus aureus” (ACS Central Science, 2024):

Legend:
[1] = target: T1, 6-Phosphoglucosamine synthetase (GlmS) (Staphylococcus aureus, UniProt Q5HE49); assay: in vitro GlmS enzymatic assay, positive control; type: biochemical
T1 sequence (Q5HE49 2-601): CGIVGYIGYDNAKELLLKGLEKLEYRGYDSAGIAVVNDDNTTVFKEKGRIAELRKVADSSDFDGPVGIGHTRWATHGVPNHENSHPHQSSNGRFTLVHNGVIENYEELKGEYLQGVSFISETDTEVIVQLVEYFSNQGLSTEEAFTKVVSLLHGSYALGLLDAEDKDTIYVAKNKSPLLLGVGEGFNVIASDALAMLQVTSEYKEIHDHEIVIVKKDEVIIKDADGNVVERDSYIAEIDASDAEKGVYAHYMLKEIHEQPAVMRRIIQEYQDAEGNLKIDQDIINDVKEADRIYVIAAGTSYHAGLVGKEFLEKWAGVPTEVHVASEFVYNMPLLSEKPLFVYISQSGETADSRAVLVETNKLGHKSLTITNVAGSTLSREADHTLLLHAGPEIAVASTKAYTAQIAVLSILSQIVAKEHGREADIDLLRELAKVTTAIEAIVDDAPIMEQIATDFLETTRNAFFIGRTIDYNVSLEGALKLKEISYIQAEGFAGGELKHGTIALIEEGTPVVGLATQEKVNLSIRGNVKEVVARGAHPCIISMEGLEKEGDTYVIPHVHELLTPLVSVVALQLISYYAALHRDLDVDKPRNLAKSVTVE

[2] = target: T1, 6-Phosphoglucosamine synthetase (GlmS); assay: SPR with purified GlmS; also thermal stability shift and enzymatic inhibition (IC50 […]); type: binding

Structure (SMILES)	in vitro GlmS enzymatic assay, positive control [1]	Kd [2] [µM]
COC(=O)/C=C/C(=O)NC[C@H](N)C(=O)O [FMDP, N^3-(4-metoxyfumaroyl)-(S)-2,3-diaminopropanoic acid]	The reported FMDP was used as a positive control.	–
O=C(c1ccc(C(F)(F)F)cc1O)c1[nH]c(Cl)c(Cl)c1-n1c(C(=O)c2ccc(C(F)(F)F)cc2O)cc(Cl)c1Cl [MA-D1]	–	0.39
